According to patent US20230121797A1, “A COMBINATION OF FLAVONOIDS AND SPHINGOSINE 1 PHOSPHATE LYASE INHIBITORS FOR THE TREATMENT OF LUNG INFLAMMATION” (AC BIOSCIENCE SA, priority 2020, published 2023):
Where two headings read alike, the source gives them in different places.

How the values were obtained:
[1] = system: LPS-stimulated whole blood; settings: cited from earlier work
neutrophils = experiment: activation of neutrophils stimulated by LPS or PMA; format: cell-based
Excerpt: Flavonoids are the largest group of naturally occurring polyphenolic compounds which have shown diverse biological activities depending of their chemical structure including anti-viral activities against a variety of viruses and potent immune-modulating and inflammatory activities. Among flavonoids, Quercetin, and its bioavailable derivatives such as isoquercetin, offer good perspectives to develop new therapeutics to treat cancer, viral infection and pathogenic inflammation (reviewed in Li et al, 2016). Flavonoids have potent anti-inflammatory activities.

circulating lymphocytes [2] = settings: mice, cited from earlier work
circulating lymphocytes [3] = settings: human subjects, cited from earlier work
PMN = experiment: oxygen consumption of triggered PMN; format: cell-based; settings: triggered by PMA, FMLP and opsonized zymosan; data not shown
Human neutrophils [4] = experiment: cytochrome c reduction rate (superoxide anion production) by activated neutrophils; format: cell-based
Experimental: Human neutrophils (2×10^6/mL) were incubated in HBSS with TNF-α at 37° C. for 25 minutes. Cells were stimulated with FMLP or PMA in the presence of cytochrome c (1.2 mg/mL final), and the optical density of the supernatants was determined by spectrophotometry (550 nm). For both PMA or FLMP as PMN activators, the IC50 for DHQ inhibition is around 8 μM.
When activated by opsonized bacteria, zymozan, FMLP (Formyl-Methionyl-Leucyl-Phenylalanine) or PMA (phorbolmyristate acetate), neutrophils undergo an oxidative burst resulting in the production of superoxide anion and subsequent hydrogen peroxide. The oxidative burst is mainly mediated by the NADPH oxidase activation, enzyme responsible of the superoxide anion production. […] This effect may come from either a direct anion superoxide scavenging or from the inhibition of NADPH oxidase activation.

Human neutrophils [5] = experiment: ROS production by activated neutrophils, luminol chemiluminescence; format: cell-based; settings: for inhibition of the ROS production: DHQ 1p M in the assay medium
Experimental: ROS production is measured using a chemiluminescence standard procedure: briefly, One hundred microliters of human neutrophils (4×10^6/mL) were primed with TNF-α at 37° C. for 25 minutes. 100 μL luminol (1 μM final concentration) and HRP (62.5 U/mL final concentration) in HBSS were added, and 150-μL aliquots were transferred to a prewarmed 96-well luminometer plate. Light emission was recorded by a Berthold MicroLumat Plus luminometer (Berthold Technologies, Hartfordshire, United Kingdom) (data output is in relative light units per second).
In order to further investigate the effect of DHQ on the oxidative burst of neutrophils, the measurement of the ROS production by chemoluminescence has been used which detect both surperoxide anion and hydrogen peroxide. […] This inhibitory effect can be considered as very efficient regarding the fact that the addition of 1p M in the assay medium results in around 80% inhibition of the ROS production in both experiments. The inhibition is not due to a ROS scavenging (as measured by cyt. C reduction) but due to the inhibition of NADPH oxidase.

Human neutrophils [6] = experiment: cytochrome c reduction rate (superoxide anion production) by activated neutrophils; format: cell-based; settings: Resting neutrophils

Structure (SMILES): O=c1c(O)c(-c2ccc(O)c(O)c2)oc2cc(O)cc(O)c12 [quercetin]
- production of the major inflammatory cytokines TNFα, IL-6, IL-8 and IL-10 [1]: decreases the production
- effect on the activation of neutrophils (neutrophils): strong inhibitory effect

Structure (SMILES): C/C(=N\O)c1nc([C@@H](O)[C@H](O)[C@H](O)CO)c[nH]1 [Compound 2]
- lymphopenia (circulating lymphocytes [2]; single oral doses lower than 30-100 mg/kg): minimal to non-statistically significant effect
- lymphopenia (circulating lymphocytes [2]; single oral doses of 30-100 mg/kg): 40-60%
- depletion of circulating lymphocytes (circulating lymphocytes [2]; single oral doses, 18 h after dosing): up to 60%
- tolerability (circulating lymphocytes [3]; all dose groups): generally well tolerated
- decrease in peripheral lymphocytes (circulating lymphocytes [3]; single ascending dose, highest administered dose of 180 mg): ~50%

Structure (SMILES): O=C1c2c(O)cc(O)cc2O[C@H](c2ccc(O)c(O)c2)[C@H]1O [DHQ, Dihydroquercetin]
- oxygen consumption of PMN (PMN): strongly inhibits
- cytochrome c reduction (anion superoxide production) (Human neutrophils [4]; +FMLP, DHQ 1 μM): 0.144 dDO/min
- cytochrome c reduction (anion superoxide production) (Human neutrophils [4]; +FMLP, DHQ 10 μM): 0.105 dDO/min
- cytochrome c reduction (anion superoxide production) (Human neutrophils [4]; +FMLP, DHQ 100 μM): 0.040 dDO/min
- cytochrome c reduction (anion superoxide production) (Human neutrophils [4]; +PMA, DHQ 1 μM): 0.110 dDO/min
- cytochrome c reduction (anion superoxide production) (Human neutrophils [4]; +PMA, DHQ 10 μM): 0.070 dDO/min
- cytochrome c reduction (anion superoxide production) (Human neutrophils [4]; +PMA, DHQ 100 μM): 0.021 dDO/min
- IC50 (Human neutrophils [4]; Homo sapiens, Neutrophil, PMA as PMN activator, neutrophils incubated with TNF-α, read-out: IC50 for DHQ inhibition of cytochrome c reduction rate (superoxide anion production)): ~8 µM
- T. half (rise) (Human neutrophils [5]; FMLP 10−6 Ml, DHQ 1, 10 or 100 μM, concentration of samples 2-4 not given): 1.55
- inhibition of the ROS production (Human neutrophils [5]; neutrophils activated by FMLP): around 80%
- inhibition of the ROS production (Human neutrophils [5]; neutrophils activated by PMA): around 80%
- cytochrome c reduction (anion superoxide production) (Human neutrophils [6]; DHQ 1 μM): 0.000 dDO/min
- cytochrome c reduction (anion superoxide production) (Human neutrophils [6]; DHQ 10 μM): 0.036 dDO/min
- cytochrome c reduction (anion superoxide production) (Human neutrophils [6]; DHQ 100 μM): 0.086 dDO/min
- effect on the activation of neutrophils (neutrophils): strong inhibitory effect
